Reference: ChEMBL document CHEMBL1201862, “PubChem BioAssay data set” (2004)
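All cell lines were grown in 96-well plates and treated with compound for 48 hours. GI50 = concentration required for 50% inhibition of growth.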 Calls of active or inactive are those of the source. Rule as the data show it: active = GI50 up to about 1.1 µM and inactive = higher.

Key:
Experiment in all cases: DTP human tumour cell line panel, 48 h
786-0 = system: 786-0
BT-549 = system: BT-549
CAKI-1 = system: CAKI-1
CCRF-CEM = system: CCRF-CEM
COLO 205 = system: COLO 205
HCT-116 = system: HCT-116
HT-29 = system: HT-29
IGROV-1 = system: IGROV-1
K562 = system: K562
LOX IMVI = system: LOX IMVI
MOLT-4 = system: MOLT-4
NCI-H226 = system: NCI-H226
NCI/ADR-RES = system: NCI/ADR-RES
SF-268 = system: SF-268
SK-MEL-28 = system: SK-MEL-28
SK-OV-3 = system: SK-OV-3
SR = system: SR
UO-31 = system: UO-31
A498 = system: A498

Structure (SMILES) | GI50 (786-0) | GI50 (BT-549) | GI50 (CAKI-1) | GI50 (CCRF-CEM) | GI50 (COLO 205) | GI50 (HCT-116) | GI50 (HT-29) | GI50 (IGROV-1) | GI50 (K562) | GI50 (LOX IMVI) | GI50 (MOLT-4) | GI50 (NCI-H226) | GI50 (NCI/ADR-RES) | GI50 (SF-268) | GI50 (SK-MEL-28) | GI50 (SK-OV-3) | GI50 (SR) | GI50 (UO-31) | GI50 (A498)
C=CCN(Cc1ccncc1)C(=O)C(O)(c1ccccc1)c1ccccc1 | > 100 µM (inactive) | 11.8 µM (inactive) | 31.5 µM (inactive) | 35.8 µM (inactive) | 45.8 µM (inactive) | 48.2 µM (inactive) | 59.3 µM (inactive) | > 100 µM (inactive) | 45.2 µM (inactive) | 97.9 µM (inactive) | 27.8 µM (inactive) | > 100 µM (inactive) | 17.7 µM (inactive) | > 100 µM (inactive) | 76.4 µM (inactive) | > 100 µM (inactive) | 32.7 µM (inactive) | 17.5 µM (inactive) | –
COC(=O)c1c(C)cccc1CC1Cc2c(C)cccc2C1=O (stereo unspecified) | 32.4 µM (inactive) | 35.9 µM (inactive) | 33.4 µM (inactive) | 23 µM (inactive) | 21.2 µM (inactive) | 25.9 µM (inactive) | 30.5 µM (inactive) | 33.3 µM (inactive) | 29.6 µM (inactive) | 12 µM (inactive) | 24.4 µM (inactive) | 20.6 µM (inactive) | 19.9 µM (inactive) | 31 µM (inactive) | 55.8 µM (inactive) | 20.2 µM (inactive) | – | 16.9 µM (inactive) | 22.6 µM (inactive)
CC(=O)Oc1ccccc1-c1cc2ccccc2oc1=O | > 100 µM (inactive) | > 100 µM (inactive) | – | > 100 µM (inactive) | > 100 µM (inactive) | > 100 µM (inactive) | > 100 µM (inactive) | – | > 100 µM (inactive) | > 100 µM (inactive) | > 100 µM (inactive) | 31 µM (inactive) | 76.9 µM (inactive) | > 100 µM (inactive) | > 100 µM (inactive) | – | > 100 µM (inactive) | 46.8 µM (inactive) | > 100 µM (inactive)
ClCCCc1ccccc1C1=NCCc2ccccc21 | > 100 µM (inactive) | 21 µM (inactive) | > 100 µM (inactive) | > 100 µM (inactive) | 22 µM (inactive) | 42.4 µM (inactive) | 28.5 µM (inactive) | 98.9 µM (inactive) | 13.7 µM (inactive) | – | 82.4 µM (inactive) | 55.1 µM (inactive) | > 100 µM (inactive) | 49.7 µM (inactive) | > 100 µM (inactive) | > 100 µM (inactive) | – | > 100 µM (inactive) | > 100 µM (inactive)
CCCC[P+](CCCC)(CCCC)C(C(=O)OC)C(C(=O)OC)=C1SC(C(=O)OC)=C(C(=O)OC)S1 (stereo unspecified) | > 100 µM (inactive) | > 100 µM (inactive) | – | – | > 100 µM (inactive) | > 100 µM (inactive) | > 100 µM (inactive) | > 100 µM (inactive) | – | > 100 µM (inactive) | > 100 µM (inactive) | > 100 µM (inactive) | > 100 µM (inactive) | > 100 µM (inactive) | > 100 µM (inactive) | > 100 µM (inactive) | > 100 µM (inactive) | > 100 µM (inactive) | –
C/C=C\C(CC(=O)O)CN1CCC2=C(C1)C(S(=O)(=O)C(F)(F)F)c1ccccc12 (stereo unspecified) | > 100 µM (inactive) | > 100 µM (inactive) | > 100 µM (inactive) | > 10 µM (inactive) | > 100 µM (inactive) | > 100 µM (inactive) | > 100 µM (inactive) | > 100 µM (inactive) | > 100 µM (inactive) | – | > 100 µM (inactive) | – | > 100 µM (inactive) | > 100 µM (inactive) | > 100 µM (inactive) | > 100 µM (inactive) | > 100 µM (inactive) | > 100 µM (inactive) | > 100 µM (inactive)
O=C1c2cc3ccccc3cc2C2(c3ccc(Cl)cc3)N[C@H]3CCCC[C@@H]3N12 (stereo partly specified) | 11.2 µM (inactive) | 20 µM (inactive) | 22.6 µM (inactive) | 48 µM (inactive) | 15.3 µM (inactive) | 5.68 µM (inactive) | 14.4 µM (inactive) | 13.3 µM (inactive) | 26.9 µM (inactive) | 19 µM (inactive) | 40.4 µM (inactive) | – | 14.2 µM (inactive) | 16.5 µM (inactive) | 12.3 µM (inactive) | 14.6 µM (inactive) | 14.7 µM (inactive) | 18.3 µM (inactive) | 18.3 µM (inactive)
N=C(c1cccs1)C1(N2CCCCC2)CCCCC1 | 70.5 µM (inactive) | 24.5 µM (inactive) | 15.3 µM (inactive) | 17.7 µM (inactive) | – | 42.2 µM (inactive) | 17.3 µM (inactive) | 22.3 µM (inactive) | 16.4 µM (inactive) | 28.2 µM (inactive) | 15.7 µM (inactive) | – | 25.4 µM (inactive) | 21.1 µM (inactive) | – | 19.6 µM (inactive) | 16.9 µM (inactive) | 16.1 µM (inactive) | 17.7 µM (inactive)
O/N=C1\C=Cc2nn(-c3ccccc3)nc2\C1=N/O | 6.11 µM (inactive) | 3.4 µM (inactive) | 4.27 µM (inactive) | 2.42 µM (inactive) | 3.7 µM (inactive) | 2.65 µM (inactive) | 4.85 µM (inactive) | 2.79 µM (inactive) | 0.695 µM (active) | 2.81 µM (inactive) | 2.55 µM (inactive) | 2.1 µM (inactive) | 7.24 µM (inactive) | 4.27 µM (inactive) | 6.21 µM (inactive) | 6.35 µM (inactive) | 3.64 µM (inactive) | 3.15 µM (inactive) | –
COc1cc2c[n+](C)c3c4ccccc4ccc3c2cc1OC | 8.65 µM (inactive) | 2.92 µM (inactive) | 55.3 µM (inactive) | 6.5 µM (inactive) | 0.991 µM (active) | 3.95 µM (inactive) | 5.4 µM (inactive) | – | 1.4 µM (inactive) | 12.9 µM (inactive) | 0.422 µM (active) | 2.94 µM (inactive) | > 100 µM (inactive) | 0.224 µM (active) | 3.42 µM (inactive) | 6.08 µM (inactive) | – | > 75.5 µM (inactive) | 37.4 µM (inactive)
CC(C)(C)OC(=O)N1C(C2=COc3ccccc3O2)=COc2ccccc21 | 38.1 µM (inactive) | 24.8 µM (inactive) | 38 µM (inactive) | – | 19.4 µM (inactive) | 23.9 µM (inactive) | 32 µM (inactive) | 9.75 µM (inactive) | 21.5 µM (inactive) | 17.5 µM (inactive) | 17.1 µM (inactive) | 23.8 µM (inactive) | 27.1 µM (inactive) | 21.3 µM (inactive) | 30.1 µM (inactive) | 29 µM (inactive) | 21.1 µM (inactive) | 30 µM (inactive) | 17.1 µM (inactive)
CCN(CC)c1nc(N(C)C)c2cc(OC)ccc2n1 | 20.7 µM (inactive) | 56.4 µM (inactive) | 44.6 µM (inactive) | – | 11.7 µM (inactive) | 11.2 µM (inactive) | 10.2 µM (inactive) | 30.8 µM (inactive) | 20.8 µM (inactive) | 26.8 µM (inactive) | 18.5 µM (inactive) | 21.9 µM (inactive) | 24.1 µM (inactive) | 25.8 µM (inactive) | 28.3 µM (inactive) | – | 21.9 µM (inactive) | 19.3 µM (inactive) | 32.6 µM (inactive)
O=C1C/C(=N/c2ccc(Cl)cc2)C(c2ccccc2)N1c1ccccc1 (stereo unspecified) | 38.4 µM (inactive) | 5.28 µM (inactive) | 1.59 µM (inactive) | – | 3.66 µM (inactive) | 8.89 µM (inactive) | 5.62 µM (inactive) | 18.2 µM (inactive) | 1.32 µM (inactive) | 6.05 µM (inactive) | 7.89 µM (inactive) | 10.1 µM (inactive) | 7.06 µM (inactive) | 3.6 µM (inactive) | 7.87 µM (inactive) | 5.92 µM (inactive) | 5.43 µM (inactive) | 5.41 µM (inactive) | 19.3 µM (inactive)
COc1cc2oc3c(c(=O)c2c(O)c1/C=C/C(C)C)C(C=C(C)C)Oc1cc(O)ccc1-3 (stereo unspecified) | 16.2 µM (inactive) | 10.6 µM (inactive) | 18 µM (inactive) | 5.53 µM (inactive) | 15.1 µM (inactive) | 14.4 µM (inactive) | 14 µM (inactive) | 13.5 µM (inactive) | 7.6 µM (inactive) | 14.2 µM (inactive) | 4.83 µM (inactive) | 17.9 µM (inactive) | 16.1 µM (inactive) | 18.7 µM (inactive) | 16.5 µM (inactive) | 16.6 µM (inactive) | – | 12.1 µM (inactive) | 24.7 µM (inactive)
COc1ccc(-c2nc(-c3ccc(OC)cc3)n(-c3ccccc3)n2)cc1 | > 100 µM (inactive) | 38.5 µM (inactive) | > 100 µM (inactive) | > 100 µM (inactive) | 46.9 µM (inactive) | > 100 µM (inactive) | 19.9 µM (inactive) | > 100 µM (inactive) | – | 41.1 µM (inactive) | 16.1 µM (inactive) | > 100 µM (inactive) | > 100 µM (inactive) | > 100 µM (inactive) | > 100 µM (inactive) | > 100 µM (inactive) | – | 21.6 µM (inactive) | 45.7 µM (inactive)
CC(=O)NCCSC(=O)c1ccccc1 | 0.0506 µM (active) | 0.946 µM (active) | 0.0226 µM (active) | < 0.0153 µM (active) | 0.158 µM (active) | 0.0488 µM (active) | 0.167 µM (active) | 1.69 µM (inactive) | 0.285 µM (active) | 0.124 µM (active) | < 0.0176 µM (active) | 0.116 µM (active) | 0.163 µM (active) | 0.0977 µM (active) | 0.268 µM (active) | 1.13 µM (inactive) | 0.0146 µM (active) | 0.264 µM (active) | –
